In patent US8796268B2, “Heteroaryls and uses thereof” (Millennium Pharmaceuticals, Inc., priority 2010, dated 2014):

Experiments:
Assay type in all cases: biochemical
Human PI3K alpha = molecular target: T1, Human PI3K alpha (Homo sapiens, UniProt P42336); assay: Human PI3K alpha enzyme assay (HTRF); details: concentration not given, b1387 states 1.1 μM for PI3K α and β; for inhibition at 1.1 µM: read-out: p110 alpha Percent Inhibition
T1 construct: His (N); host or cells: SF9 insect cells (baculovirus)
T1 sequence (P42336 whole entry): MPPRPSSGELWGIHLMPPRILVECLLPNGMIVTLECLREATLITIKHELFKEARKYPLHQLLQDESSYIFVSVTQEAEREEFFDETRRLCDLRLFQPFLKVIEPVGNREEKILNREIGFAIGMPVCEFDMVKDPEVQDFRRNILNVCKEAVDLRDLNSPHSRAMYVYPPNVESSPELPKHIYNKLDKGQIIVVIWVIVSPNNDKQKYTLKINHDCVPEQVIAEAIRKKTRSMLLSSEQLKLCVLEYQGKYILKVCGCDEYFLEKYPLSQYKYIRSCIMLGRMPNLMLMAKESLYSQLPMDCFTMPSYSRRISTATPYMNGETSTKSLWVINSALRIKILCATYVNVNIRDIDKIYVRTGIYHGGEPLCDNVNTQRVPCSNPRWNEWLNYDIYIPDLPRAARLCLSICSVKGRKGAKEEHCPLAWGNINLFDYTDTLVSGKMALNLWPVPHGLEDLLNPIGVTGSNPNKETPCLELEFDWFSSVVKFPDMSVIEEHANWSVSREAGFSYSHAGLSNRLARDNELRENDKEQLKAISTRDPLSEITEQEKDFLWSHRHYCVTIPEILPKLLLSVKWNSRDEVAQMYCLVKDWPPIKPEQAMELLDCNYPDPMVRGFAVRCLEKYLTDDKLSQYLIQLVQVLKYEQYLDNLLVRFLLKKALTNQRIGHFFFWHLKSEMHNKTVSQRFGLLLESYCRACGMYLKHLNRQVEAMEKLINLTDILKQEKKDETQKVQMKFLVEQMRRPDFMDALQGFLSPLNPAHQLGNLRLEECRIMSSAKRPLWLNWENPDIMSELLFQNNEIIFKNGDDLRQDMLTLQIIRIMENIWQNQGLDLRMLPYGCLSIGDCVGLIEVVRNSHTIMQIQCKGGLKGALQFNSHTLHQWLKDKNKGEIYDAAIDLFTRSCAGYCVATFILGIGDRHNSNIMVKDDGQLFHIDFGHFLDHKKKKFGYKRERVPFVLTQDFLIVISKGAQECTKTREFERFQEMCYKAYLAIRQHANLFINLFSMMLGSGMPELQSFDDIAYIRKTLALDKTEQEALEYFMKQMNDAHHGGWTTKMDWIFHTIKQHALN
T1 sequence (P27986 whole entry partner): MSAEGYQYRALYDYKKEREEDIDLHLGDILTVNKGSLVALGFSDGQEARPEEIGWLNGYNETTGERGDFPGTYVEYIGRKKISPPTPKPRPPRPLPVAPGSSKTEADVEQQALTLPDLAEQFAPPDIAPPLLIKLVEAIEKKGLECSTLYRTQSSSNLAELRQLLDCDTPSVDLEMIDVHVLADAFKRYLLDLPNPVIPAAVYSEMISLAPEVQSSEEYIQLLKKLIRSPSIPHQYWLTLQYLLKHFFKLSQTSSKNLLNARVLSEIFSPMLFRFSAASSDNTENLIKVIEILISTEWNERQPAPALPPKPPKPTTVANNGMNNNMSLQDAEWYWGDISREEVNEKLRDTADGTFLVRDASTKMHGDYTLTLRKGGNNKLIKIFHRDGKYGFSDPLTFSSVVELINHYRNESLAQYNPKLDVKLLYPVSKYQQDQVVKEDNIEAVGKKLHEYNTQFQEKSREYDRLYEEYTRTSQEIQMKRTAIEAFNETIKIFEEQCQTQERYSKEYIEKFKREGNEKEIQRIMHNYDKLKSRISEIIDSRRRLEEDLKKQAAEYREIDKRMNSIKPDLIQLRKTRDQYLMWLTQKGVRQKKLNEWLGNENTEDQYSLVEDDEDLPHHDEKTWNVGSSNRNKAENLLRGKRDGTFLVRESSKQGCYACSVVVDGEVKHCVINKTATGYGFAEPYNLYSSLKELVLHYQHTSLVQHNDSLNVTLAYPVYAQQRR

Human PI3K gamma = molecular target: T2, Human PI3K gamma (Homo sapiens, UniProt P48736); assay: Human PI3K gamma enzyme assay (HTRF); details: concentration not given; b1389 states 1.0 μM for PI3K δ and γ; read-out: p110 gamma Percent Inhibition
T2 construct: His (N); host or cells: SF9 insect cells (baculovirus)
T2 sequence (P48736 whole entry): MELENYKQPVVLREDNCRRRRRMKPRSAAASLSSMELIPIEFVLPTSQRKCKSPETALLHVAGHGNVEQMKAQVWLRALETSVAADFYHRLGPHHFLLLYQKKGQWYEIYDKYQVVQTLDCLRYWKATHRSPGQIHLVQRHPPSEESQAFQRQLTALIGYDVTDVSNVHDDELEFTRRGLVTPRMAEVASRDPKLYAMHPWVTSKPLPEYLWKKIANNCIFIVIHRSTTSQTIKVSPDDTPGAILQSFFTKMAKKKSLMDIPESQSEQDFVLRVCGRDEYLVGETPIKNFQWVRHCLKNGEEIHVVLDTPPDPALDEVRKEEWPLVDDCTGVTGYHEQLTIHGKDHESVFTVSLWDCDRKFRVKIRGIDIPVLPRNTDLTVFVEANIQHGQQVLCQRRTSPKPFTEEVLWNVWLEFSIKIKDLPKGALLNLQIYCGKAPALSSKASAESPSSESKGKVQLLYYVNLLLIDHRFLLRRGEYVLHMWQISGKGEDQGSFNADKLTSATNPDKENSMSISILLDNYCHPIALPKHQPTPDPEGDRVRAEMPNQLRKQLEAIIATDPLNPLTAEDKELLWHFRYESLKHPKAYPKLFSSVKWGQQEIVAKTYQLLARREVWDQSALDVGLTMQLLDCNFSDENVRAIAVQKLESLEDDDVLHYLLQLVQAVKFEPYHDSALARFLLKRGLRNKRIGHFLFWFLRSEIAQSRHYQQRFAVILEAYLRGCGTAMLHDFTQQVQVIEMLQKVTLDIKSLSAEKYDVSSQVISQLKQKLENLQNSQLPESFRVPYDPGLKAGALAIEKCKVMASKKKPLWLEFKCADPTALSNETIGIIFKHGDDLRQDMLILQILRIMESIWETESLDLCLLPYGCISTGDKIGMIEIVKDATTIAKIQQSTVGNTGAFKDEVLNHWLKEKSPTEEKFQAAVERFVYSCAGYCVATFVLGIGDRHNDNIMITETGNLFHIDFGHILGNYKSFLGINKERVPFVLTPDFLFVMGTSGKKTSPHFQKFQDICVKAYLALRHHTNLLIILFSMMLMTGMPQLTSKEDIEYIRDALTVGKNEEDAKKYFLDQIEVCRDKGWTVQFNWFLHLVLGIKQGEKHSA
Text: (§1) The catalytic subunits of PI3Ks are cloned into either pDEST8(p110 alpha) or pDEST10(p110beta, p110delta, and p110gamma) as N-terminal His tagged fusion proteins using the Gateway system (Invitrogen, catalog#11804-010 for pDEST8 and 11806-015 for pDEST10). The sequences are verified before recombinant protein expression using the Baculovirus Expression System with Gateway® Technology. The accession numbers for the subunits are as follows: • p110 alpha (GB:U79143) • p110beta (GB: S67334) • p110delta (GB: U86453) • p110gamma (GB: X83368) • The regulatory subunits of PI3Ks are cloned into pDEST8 as un-tagged protein using the Gateway system (Catalog#11804-010). The sequences are verified before recombinant protein expression using the Baculovirus Expression System with Gateway® Technology. The accession numbers for the subunits are as following: • p85 alpha (GB: BC030815) • p101(GB: AB028925) • VPS34 (accession number GB:BC033004) is cloned into pDEST20—Thombin as N-terminal GST tagged fusion proteins using the Gateway system (Invitrogen, catalog#11804-013). The sequences are verified before recombinant protein expression using the Baculovirus Expression System with Gateway® Technology.
(§2) For expression of the p110 complexes, the p85 (MOI of 4) is co-infected with p110 alpha, beta, and delta respectively (1MOI) in SF9 cells and harvested at 60 hours post co-infection. P110 gamma was infected at 1 MOI and harvested at 60 hours post infection.
(§3) For purification, PI3Ks are purified by Ni-NTA Agarose (Qiagen #30250) followed by Mono Q 10/100 GL (Ge Healthcare #17-5167-01). VPS34 is purified by Glutathione Sepharose 4 Fast Flow (GE Healthcare #17-5132-03) followed by HiTrap Q (GE Healthcare #17-1153-01).
(§4) 0.5 uL compounds in DMSO are added to wells of a 384 well microtitre plate (Corning 3575). At room temperature: 10 ul PI3K reaction buffer (50 mM Hepes, 5 mM DTT, 150 mM NaCl, 10 mM beta-glycerophosphate, 10 mM MgCl2, 0.25 mM sodium cholate and 0.001% CHAPS, pH 7.00) containing ATP (25 uM, Promega) is added followed immediately by 10 ul PI3K reaction buffer containing di-C8 P1(4,5)P2 (3.5 uM, CellSignals) and PI3Kalpha (0.4875 nM, Millennium Protein Sciences Group) and the mixture is incubated with shaking at room temperature for 30 minutes. Then 5 ul PI3K stop mix (50 mM Hepes, 5 mM DTT, 150 mM NaCl, 0.01% Tween-20, 15 mM EDTA and 25 nM biotin-PI(3,4,5)P3 (Echelon) is added to quench the reaction followed immediately by addition of 5 ul HTRF detection mix (50 mM Hepes, 5 mM DTT, 150 mM NaCl, 0.01% Tween-20, 40 mM KF, 1.0 nM GST:GRP-1 PH domain (Millennium Protein Sciences Group), 15 nM Streptavidin-XL (CisBio) and 0.375 nM anti-GST Eu++ antibody (CisBio) at pH 7.00). The plates are then incubated for 1 hour at room temperature with shaking and then read on a BMG PheraStar Plus reader.
(§5) 2) Human PI3K beta, delta and gamma isoforms are tested using the procedure described for PI3K alpha above but with the following changes: PI3K beta (5.25 nM), PI3K delta (0.75 nM) and PI3K gamma (5 nM). All isoforms supplied by Millennium Protein Science Group.
(§6) For the assay methods described above, test compound percent inhibition, at various concentrations, is calculated relative to control (DMSO and EDTA) treated samples. Compound concentration versus percent inhibition curves are fitted to generate IC50 values. One skilled in the art will appreciate that the values generated either as percentage inhibition at a single concentration or IC50 values are subject to experimental variation.

Human PI3K beta = molecular target: T3, Human PI3K beta (Homo sapiens, UniProt P42338); assay: Human PI3K beta enzyme assay (HTRF); details: concentration not given; b1387 states 1.1 μM for PI3K α and β; read-out: p110 beta Percent Inhibition
T3 construct: His (N); host or cells: SF9 insect cells (baculovirus)
T3 sequence (P42338 whole entry): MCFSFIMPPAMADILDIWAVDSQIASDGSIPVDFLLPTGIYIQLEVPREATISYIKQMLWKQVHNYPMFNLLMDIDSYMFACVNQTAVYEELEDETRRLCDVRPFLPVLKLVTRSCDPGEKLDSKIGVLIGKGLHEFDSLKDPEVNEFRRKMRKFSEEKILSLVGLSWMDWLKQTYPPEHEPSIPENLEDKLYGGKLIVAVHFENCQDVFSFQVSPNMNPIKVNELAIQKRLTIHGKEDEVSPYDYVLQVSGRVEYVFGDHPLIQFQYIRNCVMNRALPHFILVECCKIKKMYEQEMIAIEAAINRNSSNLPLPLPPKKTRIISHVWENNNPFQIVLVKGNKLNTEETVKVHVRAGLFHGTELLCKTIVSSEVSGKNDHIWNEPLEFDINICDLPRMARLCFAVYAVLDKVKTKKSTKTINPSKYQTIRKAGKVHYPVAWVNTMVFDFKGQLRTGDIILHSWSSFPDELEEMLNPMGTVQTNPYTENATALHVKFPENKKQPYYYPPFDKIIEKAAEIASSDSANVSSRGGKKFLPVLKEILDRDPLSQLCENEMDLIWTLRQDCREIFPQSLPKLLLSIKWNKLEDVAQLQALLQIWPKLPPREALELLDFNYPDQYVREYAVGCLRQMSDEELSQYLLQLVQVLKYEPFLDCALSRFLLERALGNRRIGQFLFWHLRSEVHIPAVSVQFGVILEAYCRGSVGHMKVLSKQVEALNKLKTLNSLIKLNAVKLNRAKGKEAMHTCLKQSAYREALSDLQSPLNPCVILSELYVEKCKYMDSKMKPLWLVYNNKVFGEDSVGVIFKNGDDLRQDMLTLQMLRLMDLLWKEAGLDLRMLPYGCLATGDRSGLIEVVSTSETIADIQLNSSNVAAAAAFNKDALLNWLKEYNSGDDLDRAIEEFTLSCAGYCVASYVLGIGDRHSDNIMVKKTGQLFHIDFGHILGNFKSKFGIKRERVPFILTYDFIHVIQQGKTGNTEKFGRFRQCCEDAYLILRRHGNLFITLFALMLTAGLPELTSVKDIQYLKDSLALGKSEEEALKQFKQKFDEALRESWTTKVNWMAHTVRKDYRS
T3 sequence (P27986 whole entry partner): as the sequence (P27986 whole entry partner) above
Procedure, shortened: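 Compounds were mixed with 25 uM ATP, then with 3.5 uM di-C8 PI(4,5)P2 and His-tagged PI3K isoform (β 5.25 nM, δ 0.75 nM, γ 5 nM) at pH 7.00. After 30 min at room temperature, EDTA stopped the reaction and PIP3 was measured by HTRF over 1 h.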

Human PI3K delta = molecular target: T4, Human PI3K delta (Homo sapiens, UniProt O00329); assay: Human PI3K delta enzyme assay (HTRF); details: concentration not given, b1389 states 1.0 μM for PI3K δ and γ; for inhibition at 1 µM: read-out: p110 delta Percent Inhibition
T4 construct: His (N); host or cells: SF9 insect cells (baculovirus)
T4 sequence (O00329 whole entry): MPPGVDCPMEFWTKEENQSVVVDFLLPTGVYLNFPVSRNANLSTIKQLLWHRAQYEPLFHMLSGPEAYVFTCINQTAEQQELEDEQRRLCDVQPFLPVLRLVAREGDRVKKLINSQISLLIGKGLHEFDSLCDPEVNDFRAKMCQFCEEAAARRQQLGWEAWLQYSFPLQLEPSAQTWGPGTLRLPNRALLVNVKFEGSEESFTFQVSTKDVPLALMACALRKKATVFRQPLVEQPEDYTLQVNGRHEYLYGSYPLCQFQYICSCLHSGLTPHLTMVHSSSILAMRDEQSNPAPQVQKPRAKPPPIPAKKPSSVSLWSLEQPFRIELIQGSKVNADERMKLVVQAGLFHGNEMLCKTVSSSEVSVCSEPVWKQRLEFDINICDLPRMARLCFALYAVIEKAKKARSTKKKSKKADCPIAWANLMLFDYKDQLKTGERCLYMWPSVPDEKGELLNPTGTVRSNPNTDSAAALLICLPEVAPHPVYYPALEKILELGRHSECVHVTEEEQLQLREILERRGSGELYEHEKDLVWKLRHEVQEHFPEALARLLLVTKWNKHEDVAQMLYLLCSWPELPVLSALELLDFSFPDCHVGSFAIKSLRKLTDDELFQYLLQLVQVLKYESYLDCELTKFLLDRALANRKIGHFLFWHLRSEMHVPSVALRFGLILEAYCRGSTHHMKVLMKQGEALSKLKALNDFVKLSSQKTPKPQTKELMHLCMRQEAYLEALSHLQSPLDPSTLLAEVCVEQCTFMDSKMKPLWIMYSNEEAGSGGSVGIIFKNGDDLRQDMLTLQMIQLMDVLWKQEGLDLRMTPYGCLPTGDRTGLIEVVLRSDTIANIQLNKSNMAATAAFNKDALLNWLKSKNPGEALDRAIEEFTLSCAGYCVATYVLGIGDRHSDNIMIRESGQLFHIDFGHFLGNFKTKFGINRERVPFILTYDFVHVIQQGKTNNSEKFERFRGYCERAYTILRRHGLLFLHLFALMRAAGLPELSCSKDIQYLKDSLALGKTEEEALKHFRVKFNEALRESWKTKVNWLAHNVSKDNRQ
T4 sequence (P27986 whole entry partner): as the sequence (P27986 whole entry partner) above
Text: as §1, §2, §3, §4, §5, §6

Row | Structure (SMILES) | inhibition at 1 µM (Human PI3K delta) | other results
1 | OC(c1cc2ccccc2cc1F)c1cc(-c2ccncc2)sc1-c1nnc[nH]1 (stereo not shown) [Compound 136] | 109% | p110 alpha Percent Inhibition (Human PI3K alpha): 80%; inhibition at 1 µM (Human PI3K gamma): 67%; inhibition at 1.1 µM (Human PI3K beta): 110%
2 | Clc1cccc(Cc2nc(-c3ccncc3)sc2-c2nnc[nH]2)c1 [Compound 137] | 30% | inhibition at 1.1 µM (Human PI3K alpha): 12%; inhibition at 1 µM (Human PI3K gamma): 12%; inhibition at 1.1 µM (Human PI3K beta): 54%
3 | Cc1c(F)cccc1C(O)c1cc(-c2ccncc2)sc1-c1nnc[nH]1 (stereo not shown) [Compound 138] | 69% | inhibition at 1.1 µM (Human PI3K alpha): 43%; inhibition at 1 µM (Human PI3K gamma): 13%; inhibition at 1.1 µM (Human PI3K beta): 86%
4 | N#Cc1c(N2CCOCC2)sc(C(=O)O)c1Cc1ccc2ccc(F)cc2c1 [Compound 287] | 112% | –
5 | N#Cc1c(N2CCOCC2)sc(C(=O)O)c1Cc1ccc2ccccc2c1F [Compound 293] | 110% | –
6 | N#Cc1c(N2CCOCC2)sc(C(=O)O)c1Cc1cc2ccccc2cc1F [Compound 295] | 112% | –
7 | N#Cc1c(N2CCOCC2)sc(C(=O)O)c1Cc1cc(F)c(Cl)cc1F [Compound 300] | 97% | –
8 | N#Cc1c(N2CCOCC2)sc(C(=O)O)c1Cc1ccc2c(c1)CCCC2 [Compound 305] | 74% | –
9 | N#Cc1c(N2CCOCC2)sc(C(N)=O)c1C(F)(F)c1ccc2ccccc2c1 [Compound 307] | 62% | –
10 | N#Cc1c(N2CCOCC2)sc(C(=O)O)c1C(F)(F)c1ccc2ccccc2c1 [Compound 308] | 92% | –
11 | N#Cc1c(N2CCOCC2)sc(C(=O)O)c1Cc1cc(F)c2ccccc2c1 [Compound 324] | 113% | –
12 | COC(c1ccc2ccccc2c1)c1c(C(=O)O)sc(N2CCOCC2)c1C#N (stereo not shown) [Compound 337] | – | p110 delta Percent Inhibition (Human PI3K delta): 46%
13 | N#Cc1c(N2CCOCC2)sc(C(=O)O)c1Cc1ccc2c(F)cccc2c1 [Compound 343] | 113% | –
14 | N#Cc1c(N2CCOCC2)sc(C(=O)O)c1C(F)c1ccc2ccccc2c1 (stereo not shown) [Compound 345] | 83% | p110 alpha Percent Inhibition (Human PI3K alpha): 64%
15 | N#Cc1c(N2CCOCC2)sc(-c2nnn[nH]2)c1C(F)(F)c1ccc2ccccc2c1 [Compound 349] | 96% | –
